Data as given in PubChem BioAssay (NCI).
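All cell lines were grown in 96-well plates and treated with compound for 48 hours. GI50 = concentration required for 50% inhibition of growth. TGI: concentration producing complete growth inhibition.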

Key:
Assay in all cases: growth of human tumour cells (NCI), 48 h
[1] = system: UO-31 renal
[2] = system: A498 renal
[3] = system: K-562 leukemia
[4] = system: NCI-H23 lung
[5] = system: MALME-3M melanoma
[6] = system: HCC-2998 colon
[7] = system: SR leukemia
[8] = system: TK-10 renal
[9] = system: HCT-15 colon
[10] = system: HCT-116 colon
[11] = system: SNB-19 CNS
[12] = system: NCI/ADR-RES ovarian
[13] = system: SW-620 colon
[14] = system: MDA-MB-435
[15] = system: HT29 colon
[16] = system: OVCAR-4 ovarian
[17] = system: SF-295 CNS
[18] = system: SK-MEL-5 melanoma
[19] = system: KM12 colon
[20] = system: OVCAR-8 ovarian
[21] = system: NCI-H226 lung
[22] = system: HL-60(TB) leukemia
[23] = system: SF-268 CNS
[24] = system: RXF 393 renal
[25] = system: SN12C renal
[26] = system: HS 578T breast
[27] = system: SF-539 CNS
[28] = system: M14 melanoma
[29] = system: CCRF-CEM leukemia
[30] = system: DU-145 prostate
[31] = system: MDA-MB-231 breast
[32] = system: ACHN renal
[33] = system: SNB-75 CNS
[34] = system: RPMI-8226 leukemia
[35] = system: HOP-62 NSCLC
[36] = system: MDA-N
[37] = system: UACC-257 melanoma
[38] = system: U251 CNS
[39] = system: COLO 205 colon
[40] = system: OVCAR-3 ovarian
[41] = system: T-47D breast
[42] = system: CAKI-1 renal
[43] = system: SK-MEL-28 melanoma
[44] = system: SK-OV-3 ovarian
[45] = system: UACC-62 melanoma
[46] = system: A549 NSCLC
[47] = system: OVCAR-5 ovarian
[48] = system: NCI-H522 lung
[49] = system: MOLT-4 leukemia
[50] = system: MCF7 breast
[51] = system: EKVX NSCLC
[52] = system: PC-3 prostate
[53] = system: 786-0 renal
[54] = system: IGROV1 ovarian
[55] = system: LOX IMVI melanoma
[56] = system: NCI-H460 lung
[57] = system: SK-MEL-2 melanoma
[58] = system: HOP-92 NSCLC
[59] = system: BT-549 breast

O=c1[nH]nc(Cc2ccccc2)n1C1CCCC1
TGI [1]: > 100 µM
TGI [2]: > 100 µM
TGI [3]: > 100 µM
TGI [4]: > 100 µM
TGI [5]: > 100 µM
TGI [6]: > 100 µM
TGI [7]: > 100 µM
TGI [8]: > 100 µM
TGI [9]: > 100 µM
TGI [10]: > 100 µM
TGI [11]: > 100 µM
TGI [12]: > 100 µM
TGI [13]: > 100 µM
TGI [14]: > 100 µM
TGI [15]: > 100 µM
TGI [16]: > 100 µM
TGI [17]: > 100 µM
TGI [18]: > 100 µM
TGI [19]: > 100 µM
TGI [20]: > 100 µM
TGI [21]: > 100 µM
TGI [22]: > 100 µM
TGI [23]: > 100 µM
TGI [24]: > 100 µM
TGI [25]: > 100 µM
TGI [26]: > 100 µM
TGI [27]: > 100 µM
TGI [28]: > 100 µM
TGI [29]: > 100 µM
TGI [30]: > 100 µM
TGI [31]: > 100 µM
TGI [32]: > 100 µM
TGI [33]: > 100 µM
TGI [34]: > 100 µM
TGI [35]: > 100 µM
TGI [36]: > 100 µM
TGI [37]: > 100 µM
TGI [38]: > 100 µM
TGI [39]: > 100 µM
TGI [40]: > 100 µM
TGI [41]: > 100 µM
TGI [42]: > 100 µM
TGI [43]: > 100 µM
TGI [44]: > 100 µM
TGI [45]: > 100 µM
TGI [46]: > 100 µM
TGI [47]: > 100 µM
TGI [48]: > 100 µM
TGI [49]: > 100 µM
TGI [50]: > 100 µM
TGI [51]: > 100 µM
TGI [52]: > 100 µM
TGI [53]: > 100 µM
TGI [54]: > 100 µM
TGI [55]: > 100 µM
TGI [56]: > 100 µM

COc1ccc(Oc2cccc(C3C4C(=O)N(c5ccc(C)c(Cl)c5)C(=O)C4ON3C(C(N)=O)c3ccccc3)c2)cc1 (configuration not stated)
TGI [57]: 38.3 µM
TGI [1]: > 50 µM
TGI [2]: > 50 µM
TGI [3]: > 50 µM
TGI [4]: 20.2 µM
TGI [5]: > 50 µM
TGI [7]: 35.6 µM
TGI [8]: > 50 µM
TGI [9]: 25.9 µM
TGI [10]: 45.2 µM
TGI [11]: > 50 µM
TGI [13]: > 50 µM
TGI [14]: > 50 µM
TGI [15]: 19.8 µM
TGI [16]: > 50 µM
TGI [17]: > 50 µM
TGI [18]: 32.2 µM
TGI [19]: > 50 µM
TGI [58]: > 50 µM
TGI [20]: > 50 µM
TGI [21]: 44.8 µM
TGI [22]: > 50 µM
TGI [23]: > 50 µM
TGI [24]: 30.1 µM
TGI [25]: 29.3 µM
TGI [26]: > 50 µM
TGI [27]: 21.8 µM
TGI [28]: > 50 µM
TGI [29]: > 50 µM
TGI [30]: 44.5 µM
TGI [31]: > 50 µM
TGI [32]: > 50 µM
TGI [33]: 26.2 µM
TGI [35]: > 50 µM
TGI [36]: 23.6 µM
TGI [37]: 29.3 µM
TGI [38]: > 50 µM
TGI [39]: 42.6 µM
TGI [40]: > 50 µM
TGI [41]: 33 µM
TGI [42]: > 50 µM
TGI [43]: > 50 µM
TGI [44]: > 50 µM
TGI [45]: 34.9 µM
TGI [46]: > 50 µM
TGI [47]: > 50 µM
TGI [48]: 32.6 µM
TGI [49]: 43.4 µM
TGI [50]: 47.9 µM
TGI [51]: 26.6 µM
TGI [52]: > 50 µM
TGI [53]: > 50 µM
TGI [54]: > 50 µM
TGI [55]: > 50 µM
TGI [56]: > 50 µM

Oc1ccc(C(c2ccc(O)cc2)c2ccc(Br)cn2)cc1
GI50 [57]: 1.69 µM
TGI [57]: 21 µM
GI50 [1]: 6.14 µM
TGI [1]: 40.7 µM
GI50 [2]: 0.6 µM
TGI [2]: 16.1 µM
GI50 [3]: 14.4 µM
TGI [3]: > 100 µM
GI50 [4]: 0.267 µM
TGI [4]: 0.772 µM
GI50 [5]: 17.7 µM
TGI [5]: 59.8 µM
GI50 [6]: 0.322 µM
TGI [6]: 2.98 µM
GI50 [7]: 26 µM
TGI [7]: > 86.3 µM
GI50 [8]: 0.258 µM
TGI [8]: 1.13 µM
GI50 [9]: 0.425 µM
TGI [9]: 16.9 µM
GI50 [10]: 0.517 µM
TGI [10]: 14.4 µM
GI50 [11]: 16.1 µM
TGI [11]: > 100 µM
GI50 [12]: 0.229 µM
TGI [12]: 0.55 µM
GI50 [13]: 35.9 µM
TGI [13]: > 100 µM
GI50 [14]: 20 µM
TGI [14]: 65.9 µM
GI50 [15]: 5.99 µM
TGI [15]: 98.7 µM
GI50 [16]: 0.101 µM
TGI [16]: 0.525 µM
GI50 [17]: 0.331 µM
TGI [17]: 1.63 µM
GI50 [18]: 11.9 µM
TGI [18]: 24.5 µM
GI50 [19]: 0.454 µM
TGI [19]: 18.9 µM
GI50 [58]: 0.25 µM
TGI [58]: 1.44 µM
GI50 [20]: 0.276 µM
TGI [20]: 0.786 µM
GI50 [21]: 0.243 µM
TGI [21]: 0.651 µM
GI50 [22]: 10.6 µM
TGI [22]: 44 µM
GI50 [23]: 21.5 µM
TGI [23]: > 91 µM
GI50 [24]: 0.217 µM
TGI [24]: 0.532 µM
GI50 [25]: 0.325 µM
TGI [25]: 3.82 µM
GI50 [26]: 0.242 µM
TGI [26]: 0.593 µM
GI50 [27]: 5.28 µM
TGI [27]: 27.6 µM
GI50 [28]: 14.5 µM
TGI [28]: 47.4 µM
GI50 [29]: 14.7 µM
TGI [29]: > 100 µM
GI50 [30]: 2.8 µM
TGI [30]: > 69.3 µM
GI50 [31]: 13.4 µM
TGI [31]: 49.2 µM
GI50 [32]: 0.45 µM
TGI [32]: 14.5 µM
GI50 [33]: 0.192 µM
TGI [33]: 0.635 µM
GI50 [34]: 15.6 µM
TGI [34]: 58.6 µM
GI50 [35]: 6.12 µM
TGI [35]: > 62 µM
GI50 [37]: 17.4 µM
TGI [37]: 61.5 µM
GI50 [38]: 18.5 µM
TGI [38]: 50.9 µM
GI50 [39]: 0.308 µM
TGI [39]: 3.44 µM
GI50 [40]: 0.0963 µM
TGI [40]: 0.411 µM
GI50 [41]: 0.177 µM
TGI [41]: 0.531 µM
GI50 [42]: 20.1 µM
TGI [42]: > 100 µM
GI50 [43]: 21.3 µM
TGI [43]: 60 µM
GI50 [44]: 12.5 µM
TGI [44]: 65.4 µM
GI50 [45]: 3.71 µM
TGI [45]: 15.5 µM
GI50 [46]: 1.95 µM
TGI [46]: 60 µM
GI50 [47]: 13.7 µM
TGI [47]: > 71 µM
GI50 [48]: 1.43 µM
TGI [48]: 46.6 µM
GI50 [49]: 21.3 µM
TGI [49]: 76.4 µM
GI50 [50]: 0.264 µM
TGI [50]: 0.732 µM
GI50 [51]: 0.358 µM
TGI [51]: 3.85 µM
GI50 [52]: 0.257 µM
TGI [52]: 0.72 µM
GI50 [53]: 21.5 µM
TGI [53]: > 79.7 µM
GI50 [54]: 0.476 µM
TGI [54]: 42.7 µM
GI50 [55]: 0.282 µM
TGI [55]: 0.895 µM
GI50 [56]: 20.7 µM
TGI [56]: 49.1 µM
GI50 [59]: 0.26 µM
TGI [59]: 0.788 µM
